These results are taken from patent US10265383B2, “Treatment of radiation injury using ghrelin” (priority 2014, dated 2019).

Where no end group is shown, it is not given here. The star is where a group is joined. Octanoyl = CCCCCCCC(=O)*

This test relates to pAkt. In words: Western blot of jejunal pAkt expression. The format is in vivo, rat. The conditions noted are these: jejunum, Day 7 after 10 Gy WBI; versus vehicle. The protocol:
Animal model of whole body irradiation. Rats were exposed to whole body irradiation (WBI) of 10 Gray (Gy) using a Gammacell® 1000 Irradiator (Atomic Energy of Canada Ltd) [radiation source: Cesium-137 (^137Cs)] delivered at a dose rate of about 2.5 GY/min. The animals were sedated with intra-peritoneal pentobarbital (40 mg/kg BW) prior to irradiation. During radiation, the container rotated continuously in front of the radiation source for even exposure. The animals were then returned to their cages, and food and water were provided.
Blood and Tissue Collection after WBI. Rats exposed to 10 Gy WBI were treated with 20 nmol/rat human ghrelin once a day for 6 days starting at 24 h after radiation. At the 7th day, rats were euthanized, and blood, liver and the small intestine were removed under sterile conditions. […]
Western blot analysis. […] After overnight incubation with the primary antibodies at 4° C., the membranes were washed with TBS-T Immunoreactive bands were detected using HRP-linked secondary antibody (Southern Biotech, Birmingham, Ala.) and the Enhanced Chemiluminescence (ECL) Western blot detection kit (Amersham, Piscataway, N.J.). The immunoblots were exposed to X-ray film and analyzed with the NIH Image J analysis system. […]
On the technique in general: Immunoblotting shows a protein as a band on a membrane.

Regarding “ghrelin (GSS(Octanoyl)FLSPEHQRVQQRKESKKPPAKLQPR; listed as Homo sapiens) [human ghrelin]”, the “intestinal pAkt expression” value is on record as “further significantly increased”.
